In the OligoGym collection one finds target mRNA inhibition data, which are given here for 35 sequences.

Several values for one entry are separate records, joined by “and”; a condition that tells them apart may be missing. Equal values may be shown once. After the bases stand the sugars from the 5' end (letter, count) and the backbone: PS all phosphorothioate, else s phosphorothioate and o phosphodiester by linkage. Methylation of C is not given here. e = 2'-O-(2-methoxyethyl) (MOE); k = constrained ethyl (cEt); d = 2'-deoxy (DNA)

For the data set, the target named is IRF4. The settings on record: ASO.

As to TACATTCACACTGCCG (sugars k3 d10 k3, PS), the target mRNA inhibition runs as follows: (MM.1R, 0.074 µM) -3%; (MM.1R, 0.222 µM) 2%; (MM.1R, 0.666 µM) 15%; (MM.1R, 2 µM) 9%; (SK-MEL-28, 4 µM) 50% and 58%.
Consider TCGCATCCAGACCCTT (sugars k3 d10 k3, PS), for which the target mRNA inhibition (SK-MEL-28, 4 µM) came out at 28%.
On the same count and under the same terms, under TGGTGGGTCCTGGCAG (sugars k3 d10 k3, PS) stands 23%.
Take “GGTTGGCTGGTCTTTG (sugars kkdddddddddkdkdk, PS)”: under “MM.1R, 1 µM”, the target mRNA inhibition came to 64%.
For TATCAAAGATCTCCAC (sugars k3 d10 k3, PS), the target mRNA inhibition (SK-MEL-28, 4 µM) was determined as 25%.
On the same count and under the same terms, under CGTAACTCAGGCACCA (sugars k3 d10 k3, PS) stands 30%; under ACCCACACAAGTCTTA (sugars k3 d10 k3, PS), -4%; under ATATAGAATTAGGTGC (sugars k3 d10 k3, PS), 16%.
On the same count and under the same terms, under GTGTAAGGTCTGAGAG (sugars k3 d10 k3, PS) stands 16%; under ACTGTCCACTGAGTAC (sugars k3 d10 k3, PS), 61%.
In the case of TGTATAGTTCTCAACC (sugars k3 d10 k3, PS), the target mRNA inhibition (SK-MEL-28, 4 µM) amounted to 43%.
On to “CAGTGATGTCAGGTTT (sugars kkdddddddddkekek, PS)”, for which the target mRNA inhibition was found to be 8% (MM.1R, 0.074 µM); 28% (MM.1R, 0.222 µM); 53% (MM.1R, 0.666 µM); 64% (MM.1R, 1 µM); 77% (MM.1R, 2 µM).
Take CATTTTATGGACCACG (sugars k3 d10 k3, PS): the target mRNA inhibition (SK-MEL-28, 4 µM) was 62%.
The same measure, in the same setting: under GGTTACTAATTCCATA (sugars k3 d10 k3, PS) stands 56%; under AAGGAGGCGGGCCTTG (sugars k3 d10 k3, PS), 2%.
For the sequence CATGGGAGATCCGGCA (sugars k3 d10 k3, PS), under “SK-MEL-28, 4 µM”, the target mRNA inhibition amounted to 41%.
With “ACAGTGACTTGCATCC (sugars k2 d9 e3 k2, PS)”, for the setting “MM.1R, 1 µM”, the target mRNA inhibition was 27%.
Regarding CCCCAGTCTACTGCTG (sugars k3 d10 k3, PS), the target mRNA inhibition (SK-MEL-28, 4 µM) was 47%.
The same measure, in the same setting: under AAAGAGCTTGCAGGTC (sugars k3 d10 k3, PS) stands 37%.
Regarding GATGTATACATCACTG (sugars k3 d10 k3, PS), for the setting “SK-MEL-28, 4 µM”, the target mRNA inhibition was found to be 70%.
Same read-out and setting: under GCACAAGCATAAAAGG (sugars k3 d10 k3, PS) stands 16%; under TTCAACTTGTGACCCA (sugars k3 d10 k3, PS), 49%.
For CCACAAGCAGTGATGT (sugars k3 d10 k3, PS), the target mRNA inhibition (MM.1R, 1 µM) amounted to 16%.
Regarding TGATAGCTGAGCTGAT (sugars k3 d10 k3, PS), the target mRNA inhibition (SK-MEL-28, 4 µM) was determined as 37%.
Turning to TCTAAAGTCCCATCGA (sugars k3 d10 k3, PS), the target mRNA inhibition (SK-MEL-28, 4 µM) stood at 31%.
On the same count and under the same terms, under ACAGATAGTTAAGTAC (sugars k3 d10 k3, PS) stands 35%.
As to “TGGGATTATATACTGG (sugars kkdddddddddkdkdk, PS)”, the target mRNA inhibition (MM.1R, 1 µM) came out at 25%.
Take CCAAGATCGAGCGGTG (sugars k3 d10 k3, PS): for the setting “SK-MEL-28, 4 µM”, the target mRNA inhibition came to 37%.
For ATGAGGGACCAGAACT (sugars k3 d10 k3, PS), the target mRNA inhibition (MM.1R, 1 µM) is 6%.
Still for that read-out and setting: under “AAGCATTTTATCATCC (sugars kkdddddddddekeke, PS)” stands 25%.
Consider AGGACAATGGAGATAC (sugars k3 d10 k3, PS), for which the target mRNA inhibition (SK-MEL-28, 4 µM) is 72%.
On to TGGAAACGAGAACGCA (sugars k3 d10 k3, PS), for which, under “MM.1R, 1 µM”, the target mRNA inhibition is -7%.
In the case of “GGTTGGCTGGTCTTTG (sugars kdddddddddkekeke, PS)”, under “MM.1R, 1 µM”, the target mRNA inhibition turned out to be 26%.
Regarding CCCAAGCCTTGAAGAG (sugars k3 d10 k3, PS), the target mRNA inhibition (SK-MEL-28, 4 µM) was determined as 6%.
In the case of GAGCAGTAAACGCAAG (sugars k3 d10 k3, PS), the target mRNA inhibition (SK-MEL-28, 4 µM) stood at 54%.
